The source of these data is US20040044046A1, “Stability of lipoic acid” (priority 2002, published 2004).

For data set [1] the following is noted: reduced form with two -SH groups; cited from earlier work.
Data set [2] is described as follows: Storage stability of the nicotinamide lipoate crystalline powder, followed by repeated infrared spectrophotometry. The data set is classed as physicochemical. The source says: A small quantity of the powder as a mineral oil mull spread was spread on NaCl polished crystal plates. The plate was placed in a Beckman Infrared Spectrophotometer AccuLab 2 grating machine, linear in wave number.

For data set [3] the following is noted: can degrade under some warehousing conditions; cited from earlier work.

With `O=C(O)CCCC[C@@H](S)CCS` (racemic) [DHLA, dihydrolipoate], the Oxidation potential in data set [1] is on record as −0.29 V.

As to `NC(=O)c1cccnc1.O=C(O)CCCCC1CCSS1` (stereo not shown) [Example 1], in data set [2] (ambient conditions (light and temperature) for over a year), the “Change in crystal form or chemical composition on standing” value is recorded as “essentially no change”. Moreover, the “Infrared spectrum on repeat spectrophotometry compared with initial spectrum” value in data set [2] (mineral oil mull on NaCl plates, repeated at about 3 and 17 months, ambient conditions (light and temperature)) is “essentially the same”. Regarding `O=C(O)CCCC[C@@H]1CCSS1` [R-LA, R-α-lipoic acid], the “Temperature above which unstable” value in data set [3] is “above 40 °C”.
